Test results as given in BindingDB's records for doi:10.1016/j.bmcl.2016.03.009 (Toray Industries, 2016).

Experiment: Agonist activity at human IP receptor in platelet rich plasma assessed as inhibition of ADP-induced platelet aggregation preincubated for 1 min followed by addition of ADP by aggregometry

IC50 [nM]	SMILES
740	O=C(O)COc1ccc(CCN(C(=O)c2ccccc2)c2ccc(Cl)cc2)cc1
440	O=C(O)COC1CCN(CCN(C(=O)c2ccccc2)c2ccc(Cl)cc2)CC1
13	O=C(O)COc1cccc2c1OCCN2CCN(C(=O)c1ccccc1)c1ccc(Cl)cc1
> 30000	O=C(O)COc1cccc(CCN(C(=O)c2ccccc2)c2ccc(Cl)cc2)c1
23000	O=C(O)COC1CCN(CCN(C(=O)c2ccccc2)c2ccc(Cl)cc2)C1 (stereo not given)
20000	O=C(O)COc1ccc(CCCN(C(=O)c2ccccc2)c2ccc(Cl)cc2)cc1
320	O=C(O)COC1CCC(=CCN(C(=O)c2ccccc2)c2ccc(Cl)cc2)CC1 (stereo not given)
> 30000	O=C(O)COc1ccc(CN(C(=O)c2ccccc2)c2ccc(Cl)cc2)cc1

The next lines start with the compound.

SMILES	IC50 [nM]
CCCCc1ccc(N(CCN2CCC(OCC(=O)O)CC2)C(=O)c2ccccc2)cc1	> 1000
O=C(O)COC1CCN(CCN(C(=O)c2ccccc2)c2ccccc2)CC1	3200
COc1ccc(N(CCN2CCC(OCC(=O)O)CC2)C(=O)c2ccccc2)cc1	900
CC(C)c1ccc(N(CCN2CCC(OCC(=O)O)CC2)C(=O)c2ccccc2)cc1	> 1000
Cc1ccccc1N(CCN1CCC(OCC(=O)O)CC1)C(=O)c1ccccc1	> 1000
O=C(O)COC1CCN(CCN(C(=O)c2ccccc2)c2ccc(N3CCCC3)cc2)CC1	> 1000
Cc1cc(C)c(N(CCN2CCC(OCC(=O)O)CC2)C(=O)c2ccccc2)c(C)c1	> 1000
Cc1ccc(N(CCN2CCC(OCC(=O)O)CC2)C(=O)c2ccccc2)cc1	130
Cc1cccc(N(CCN2CCC(OCC(=O)O)CC2)C(=O)c2ccccc2)c1	> 1000
CCc1ccc(N(CCN2CCC(OCC(=O)O)CC2)C(=O)c2ccccc2)cc1	430
CCCc1ccc(N(CCN2CCC(OCC(=O)O)CC2)C(=O)c2ccccc2)cc1	1000
Cc1ccc(N(CCN2CCC(OCC(=O)O)CC2)C(=O)c2ccccc2)c(C)c1	> 1000
